These results are taken from patent publication US12091425B2 (AMGEN INC., priority 2016, dated 2024).

In this assay the target is T1, Mcl-1/Bim interaction, recombinant human Mcl-1 (171-327) (Homo sapiens, UniProt Q07820).
T1 construct: made in house
Kind of assay: Cell free Mcl-1: Bim Affinity Assay (Mcl-1 HTRF). In kind it is binding. In short, it runs like this: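 TR-FRET competition assay with biotinylated human Bim peptide (residues 51-76); reaction plates incubated overnight before reading. IC50 values came from duplicate data fitted to a four-parameter sigmoidal competition curve.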
(In general: In TR-FRET formats the signal depends on donor and acceptor labels being close together.)

Where [1] appears, read: TR-FRET, 0.1 nM Mcl-1 (171-327), 0.05 nM biotin-Bim (51-76).
[2] abbreviates: cell free Mcl-1:Bim TR-FRET, recombinant human Mcl-1 (171-327).

T1 sequence (Q07820 171-327): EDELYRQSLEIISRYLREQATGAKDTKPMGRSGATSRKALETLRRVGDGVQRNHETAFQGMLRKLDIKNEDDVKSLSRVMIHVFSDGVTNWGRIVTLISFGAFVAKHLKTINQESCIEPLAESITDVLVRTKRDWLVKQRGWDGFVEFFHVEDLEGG

Regarding `C/C=C/C1CC(=O)[C@@H]2CC[C@H]2CN2C[C@@]3(CCCc4cc(Cl)ccc43)COc3ccc(cc32)C(=O)NS(=O)(=O)[C@H](C)[C@@H](C)C1` (stereo in doubt) [Example 350, (1S,3′R,6′R,9′R,11′S,12′R)-6-chloro-11′,12′-dimethyl-9′-((1E)-1-propen-1-yl)-3,4-dihydro-2H,7′H,15′H-spiro[naphthalene-1,22′-[20]oxa[13]thia[1,14]diazatetracyclo[14.7.2.0^3,6.0^19,24]pentacosa [16,18,24]triene]-7′,15′-dione 13′,13′-dioxide], the IC50 (as a rule, the point on the concentration scale where inhibition reaches its midpoint) under setting [1] came to 3.73 nM.

`C/C=C/C1CC(=O)[C@@H]2CC[C@H]2CN2C[C@@]3(CCCc4cc(Cl)ccc43)COc3ccc(cc32)C(=O)NS(=O)(=O)[C@H](C)[C@@H](C)C1` (stereo in doubt) [Example 353, (1S,3′R,6′R,9′S,11′S,12′R)-6-chloro-11′,12′-dimethyl-9′-((1E)-1-propen-1-yl)-3,4-dihydro-2H,7′H,15′H-spiro[naphthalene-1,22′-[20]oxa[13]thia[1,14]diazatetracyclo[14.7.2.0^3,6.0^19,24]pentacosa [16,18,24]triene]-7′,15′-dione 13′,13′-dioxide]: the IC50 under setting [1] stood at 9.09 nM.

As for `O=C1NS(=O)(=O)CCOCCC[C@@H]2CC[C@H]2CN2C[C@@]3(CCCc4ccccc43)COc3ccc1cc32` (stereo in doubt) [Example 824, (3S,6R,22S)-3′,4′-dihydro-2′H,15H-spiro[10,20-dioxa-13-thia-1,14-diazatetracyclo[14.7.2.0^3,6.^019,24]pentacosa-16,18,24-triene-22,1′-naphthalen]-15-one 13,13-dioxide], the IC50 under setting [2] was found to be 20.1 nM.

As to `O=C1NS(=O)(=O)CCOC/C=C/C2CCC2CN2C[C@@]3(CCCc4cc(Cl)ccc43)COc3ccc1cc32` (stereo in doubt) [Example 826, (3S,6R,7E,22S)-6′-chloro-3′,4′-dihydro-2′H,15H-spiro[10,20-dioxa-13-thia-1,14-diazatetracyclo[14.7.2.0^3,6.0^19,24]pentacosa-7,16,18,24-tetraene-22,1′-naphthalen]-15-one 13,13-dioxide], the half-maximal inhibitory concentration (IC50) under setting [2] turned out to be 10.5 nM.

Take `O=C1NS(=O)(=O)CCOCCCC2CCC2CN2C[C@@]3(CCCc4cc(Cl)ccc43)COc3ccc1cc32` (stereo in doubt) [Example 827, (3S,6R,22S)-6′-chloro-3′,4′-dihydro-2′H,15H-spiro[10,20-dioxa-13-thia-1,14-diazatetracyclo[14.7.2.0^3,6.0^19,24]pentacosa-16,18,24-triene-22,1′-naphthalen]-15-one 13,13-dioxide]: under setting [2], the IC50 turned out to be 3.54 nM.

In the case of `CC[C@@H]1CC/C=C/C(NC(C)=O)[C@@H]2CC[C@H]2CN2C[C@@]3(CCCc4cc(Cl)ccc43)COc3ccc(cc32)C(=O)NS1(=O)=O` (stereo in doubt) [Example 1076, N-((1S,3′R,6′R,7′R,8′E,12′R)-6-chloro-12′-ethyl-13′,13′-dioxido-15′-oxo-3,4-dihydro-2H-spiro[naphthalene-1,22′-[20]oxa[13]thia[1,14]diazatetracyclo[14.7.2.0^3,6.0^19,24]pentacosa[8,16,18,24]tetraen]-7′-yl)acetamide], the 50% inhibitory concentration (IC50) under setting [1] is 1.82 nM.

`COC[C@H]1C/C=C/[C@H](OC)[C@@H]2CC[C@H]2CN2C[C@@]3(CCCc4cc(Cl)ccc43)COc3ccc(cc32)C(=O)NS(=O)(=O)[C@@H]1C` [Example 2, (1S,3′R,6′R,7′S,8′E,11′R,12′R)-6-chloro-7′-methoxy-11′-(methoxymethyl)-12′-methyl-3,4-dihydro-2H,15′H-spiro[naphthalene-1,22′-[20]oxa[13]thia[1,14]diazatetracyclo[14.7.2.0^3,6.0^19,24]pentacosa [8,16,18,24]tetraen]-15′-one 13′,13′-dioxide]: under setting [1], the concentration for half-maximal inhibition (IC50) came to 6.85 nM.

For `CCN1CC/C=C/[C@H](OCC(=O)O)[C@@H]2CC[C@H]2CN2C[C@@]3(CCCc4cc(Cl)ccc43)COc3ccc(cc32)C(=O)NS1(=O)=O` [Example 44, (((1S,3′R,6′R,7′S,8′E)-6-chloro-12′-ethyl-13′,13′-dioxido-15′-oxo-3,4-dihydro-2H-spiro[naphthalene-1,22′-[20]oxa[13]thia[1,12,14]triazatetracyclo[14.7.2.0^3,6.0^19,24]pentacosa[8,16,18,24]tetraen]-7′-yl)oxy)acetic Acid], the half-maximal inhibitory concentration (IC50) under setting [1] is 0.115 nM.

`CCN1CC/C=C/[C@H](OC)[C@@H]2CC[C@H]2CN2C[C@@]3(CCCc4cc(Cl)ccc43)COc3ccc(cc32)C(=O)NS1(=O)=O` [Example 45]: the IC50 under setting [1] was 2.3 nM.

On to `CCN1CCCC[C@H](O)[C@@H]2CC[C@H]2CN2C[C@@]3(CCCc4cc(Cl)ccc43)COc3ccc(cc32)C(=O)NS1(=O)=O` [Example 86, (1S,3′R,6′R,7′S)-6-chloro-12′-ethyl-7′-hydroxy-3,4-dihydro-2H,15′H-spiro[naphthalene-1,22′-[20]oxa[13]thia[1,12,14]triazatetracyclo[14.7.2.0^3,6.0^19,24]pentacosa[16,18,24]trien]-15′-one 13′,13′-dioxide], for which the half-inhibitory concentration (IC50) under setting [1] is 4.04 nM.

Consider `O=C1NS(=O)(=O)[C@@H]2CC[C@H]2CCC[C@H](O)[C@@H]2CC[C@H]2CN2C[C@@]3(CCCc4cc(Cl)ccc43)COc3ccc1cc32` [Example 91, (1S,3′R,6′R,7′S,11′R,14′R)-6-chloro-7′-hydroxy-3,4-dihydro-2H,17′H-spiro[naphthalene-1,24′-[22]oxa[15]thia[1,16]diazapentacyclo[16.7.2.0^3,6.0^11,14.0^21,26]heptacosa[18,20,26]trien]-17′-one 15′,15′-dioxide], for which the IC50 under setting [1] amounted to 3.06 nM.

With `O=C1NS(=O)(=O)[C@H]2CC[C@@H]2CCC[C@H](O)[C@@H]2CC[C@H]2CN2C[C@@]3(CCCc4cc(Cl)ccc43)COc3ccc1cc32` [Example 92, (1S,3′R,6′R,7′S,11′S,14′S)-6-chloro-7′-hydroxy-3,4-dihydro-2H,17′H-spiro[naphthalene-1,24′-[22]oxa[15]thia[1,16]diazapentacyclo[16.7.2.0^3,6.0^11,14.0^21,26]heptacosa[18,20,26]trien]-17′-one 15′,15′-dioxide], under setting [1], the 50% inhibitory concentration (IC50) worked out at 0.781 nM.

Regarding `COc1ccc(CN2CCCCS(=O)(=O)NC(=O)c3ccc4c(c3)N(C[C@@H]3CC[C@H]3C2=O)C[C@@]2(CCCc3cc(Cl)ccc32)CO4)cc1` [Example 96, (1S,3′R,6′R)-6-chloro-8′-(4-methoxybenzyl)-3,4-dihydro-2H,7′H,15′H-spiro[naphthalene-1,22′-[20]oxa[13]thia[1,8,14]triazatetracyclo[14.7.2.0^3,6.0^19,24]pentacosa[16,18,24]trien]-7′,15′-dione 13′,13′-dioxide], the half-maximal inhibitory concentration (IC50) under setting [1] amounted to 31.7 nM.

On to `O=C1NS(=O)(=O)CCCCNC(=O)[C@@H]2CC[C@H]2CN2C[C@@]3(CCCc4cc(Cl)ccc43)COc3ccc1cc32` [Example 98, (1S,3′R,6′R)-6-chloro-3,4-dihydro-2H,7′H,15′H-spiro[naphthalene-1,22′-[20]oxa[13]thia[1,8,14]triazatetracyclo[14.7.2.0^3,6.0^19,24]pentacosa[16,18,24]triene]-7′,15′-dione 13′,13′-dioxide], for which the concentration for half-maximal inhibition (IC50) under setting [1] was 15.5 nM.

With `CN1CCCCS(=O)(=O)NC(=O)c2ccc3c(c2)N(C[C@@H]2CC[C@H]2C1=O)C[C@@]1(CCCc2cc(Cl)ccc21)CO3` [Example 99, (1S,3′R,6′R)-6-chloro-8′-methyl-3,4-dihydro-2H,7′H,15′H-spiro[naphthalene-1,22′-[20]oxa[13]thia[1,8,14]triazatetracyclo[14.7.2.0^3,6.0^19,24]pentacosa[16,18,24]trien]-7′,15′-dione 13′,13′-dioxide], the IC50 under setting [1] came out at 20.7 nM.
